This is an account of results in PubChem BioAssay (NCI).

What all share (assay): inhibition of tumour cell growth, NCI panel, 48 h
The subject of assay [1] is OVCAR-5 ovarian.
The test system of assay [2] is IGROV1 ovarian.
Assay [3] has as its system CAKI-1 renal.
For assay [4], the system named is 786-0 renal.
Assay [5] relates to SR leukemia.
The test system of assay [6] is UACC-62 melanoma.

The structures appear in SMILES notation.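 Protocol summary: plate cells (96-well), add compound at 5 concentrations, incubate 48 h, interpolate endpoints linearly. The concentration for 50% growth inhibition is given as GI50. TGI: total growth inhibition.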 Some results are limits rather than exact numbers.

For the compound `O=C(Nc1ccccc1)c1cc(S(=O)(=O)Nc2n[nH]c(=O)[nH]2)c(SSc2cc(Cl)c(C(=O)Nc3ccccc3)cc2S(=O)(=O)Nc2n[nH]c(=O)[nH]2)cc1Cl`, the TGI in assay [1], in assay [2], in assay [3], in assay [4] and in assay [5] was over 100 µM throughout.

Regarding `CCn1nc(-c2ccccc2)c2c1N(C)c1ccccc1-n1c(-c3ccccc3)nnc1-2`, the TGI is 33.5 µM in assay [1]; 40.3 µM in assay [2]; 26.6 µM in assay [6]; 30.6 µM in assay [4]; over 100 µM in assay [5].

Consider `CC(C)(C)OC(=O)NC1CCCC1C(O)(C1=CCCC1)C1=CCCC1` (stereo not given), for which the TGI in assay [1], in assay [2], in assay [6], in assay [4] and in assay [5] was over 100 µM each time.

As to `CN1c2ccccc2C(=O)NC12CCN(Cc1ccccc1)CC2`, the TGI in assay [1], in assay [2], in assay [6], in assay [4] and in assay [5] was over 100 µM throughout.

With `O=c1[nH]c2nccnc2c2c([N+](=O)[O-])cccc12`, the TGI in assay [1], in assay [2], in assay [6], in assay [4] and in assay [5] was over 100 µM throughout.

Take `COc1ccc(C2c3cc4c(cc3OC(NNC(N)=O)C2C)OCO4)cc1` (stereo not given): the TGI in assay [1] is over 100 µM; in assay [2], over 100 µM; in assay [6], over 70.2 µM; in assay [3] it was over 100 µM; in assay [4], 37.5 µM.

Consider `Cc1c(NC(=S)N/N=C\C(=N/NC(=S)Nc2c(C)n(C)n(-c3ccccc3)c2=O)c2ccccc2)c(=O)n(-c2ccccc2)n1C`, for which the TGI in assay [1], in assay [6], in assay [3], in assay [4] and in assay [5] was over 100 µM each time.

As to `CC1(C)C2CCC1(C)C(N/C(=C(/C(Cl)=C(Cl)Cl)[N+](=O)[O-])n1nnc3ccccc31)C2` (stereo not given), the TGI in assay [1] was over 100 µM; in assay [6], 46 µM; in assay [3], 37 µM; in assay [4], over 100 µM.

On to `Cc1ccc(S(=O)(=O)N(CC(O)c2ccccc2)c2ccccc2F)cc1` (stereo not given), for which the TGI in assay [1] is 41 µM; in assay [2], 41.2 µM; in assay [6], 28 µM; in assay [3] it was 33.7 µM; in assay [4] it was 34.7 µM.

On to `COC(=O)c1c(O)ccc2c1c1c(n2Cc2ccc(OC)cc2)C(=O)c2ccccc2C1=O`, for which the TGI in assay [1] was determined as 51.7 µM; in assay [2], 21.4 µM; in assay [3], 86.4 µM; in assay [4], 28.5 µM; in assay [5], 2.92 µM.

As for `C/C=C1/CN2[C@@H](C3=C[C@@H]4[C@@H]5N(C3=O)c3ccccc3[C@@]53CCN5C/C(=C/C)[C@@H]4C[C@H]53)C[C@@]34c5ccccc5N5C(=O)CC=C([C@H]1C[C@H]23)[C@H]54`, the TGI amounted to 15 µM in assay [1], 9.1 µM in assay [6], 15.7 µM in assay [3] and 7.8 µM in assay [4].

As to `COc1cc(C(=O)O[C@H](C(=O)NCCNC(=O)[C@@H](OC(=O)c2cc(OC)cc3c(C)cccc23)[C@]2(C)CO2)[C@]2(C)CO2)c2cccc(C)c2c1`, the GI50 in assay [1] was 0.381 µM; in assay [2], under 0.0475 µM; in assay [3], 0.0563 µM. Also, the figures for the TGI in assay [1], in assay [2] and in assay [3] were 2.08 µM, 5.28 µM and 0.252 µM, respectively.

Turning to `c1ccc2c(c1)CCN(C1=NCCO1)C2`, the TGI in assay [1], in assay [2], in assay [6], in assay [3] and in assay [4] was over 10 µM in each case.

`Fc1ccc(C2NC(=S)NC3=C2CCOc2c3ccc3ccccc23)cc1` (stereo not given): the TGI in assay [1], in assay [2], in assay [3] and in assay [4] was over 100 µM throughout.

For the compound `O=c1[nH]c(=S)c2cc3c(=S)[nH]c(=O)n(CCC(c4ccccc4)(c4ccccc4)c4ccccc4)c3nc2n1CCC(c1ccccc1)(c1ccccc1)c1ccccc1`, the TGI in assay [1], in assay [6], in assay [3] and in assay [4] was over 100 µM each time.

Regarding `CC1(C)CC(=O)C2=C(C1)NC(SCC(=O)O)=C(C#N)C2c1ccc(Br)cc1` (stereo not given), the TGI in assay [1], in assay [2], in assay [6], in assay [3] and in assay [4] was over 100 µM throughout.

For `N#CCN1CCCCCc2ccccc21`, the TGI in assay [1], in assay [2], in assay [6], in assay [4] and in assay [5] was over 100 µM each time.

For `CC(=O)Nc1ccc(N2C(=O)CS(=O)(=O)C2c2cccc(Oc3ccccc3)c2)cc1` (stereo not given), the TGI in assay [1] stood at 37.2 µM; in assay [6], 27.9 µM; in assay [4], 35.7 µM; in assay [5], 48.7 µM.

As to `CC(=O)N1CC(C)(C)c2c1cc(C)c(O)c2C`, the TGI in assay [1], in assay [2], in assay [6] and in assay [4] was over 100 µM each time.

As to `COC(=O)C1=COC(C)C2C[n+]3ccc4c([nH]c5ccccc54)c3CC12` (stereo not given), the TGI in assay [1], in assay [2], in assay [6], in assay [3] and in assay [4] was over 100 µM in each case.

As to `Cc1ccc(S(=O)(=O)NC(=O)NC(Cc2ccccc2)C(=O)O)cc1` (stereo not given), the TGI in assay [1], in assay [2], in assay [6], in assay [4] and in assay [5] was over 100 µM each time.

As for `CN1[C@@H]2CCCC[C@H]2N(C)P1(=O)C(O)/C=C/c1ccccc1` (stereo not given in full), the TGI in assay [1], in assay [2], in assay [6], in assay [3] and in assay [4] was over 100 µM throughout.

In turn, `CCOC(O)C(F)(F)F` (stereo not given) returned a TGI in assay [5] of over 100 µM.

In the case of `N#CN=C1c2ccccc2C(=NC#N)c2cc(CO)ccc21`, the TGI in assay [1] was over 100 µM; in assay [2], 90.7 µM; in assay [3], over 100 µM; in assay [4], over 100 µM; in assay [5] it was 43 µM.

Turning to `Nc1nc2cc(CNc3ccc(C(=O)O)cc3)ccc2nc1-c1ccccc1`, the TGI in assay [1], in assay [2], in assay [4] and in assay [5] was over 100 µM in each case.

For the compound `OCc1c2c(cc3c1CC1(C3)Cc3cc4c(c(CO)c3C1)CCC4)CCC2`, the TGI came out at 34.6 µM in assay [1], 30.2 µM in assay [2], 32.6 µM in assay [6] and 27.7 µM in assay [4].

Regarding `N#CC(c1nc2ccccc2s1)c1nc(Cl)ncc1Br` (stereo not given), the TGI in assay [1], in assay [2], in assay [3] and in assay [4] was over 100 µM each time.

Regarding `NC(Cc1ccccc1)=NCC(=O)O`, the TGI in assay [1], in assay [2], in assay [6], in assay [3] and in assay [4] was over 100 µM throughout.

On to `CCCN=C1Nc2ccccc2[C@@H]2N(C)c3ccccc3C(C)C[C@]12C` (stereo not given in full), for which the TGI came to 46.8 µM in assay [1]; 43.5 µM in assay [2]; 33.2 µM in assay [6]; 84.5 µM in assay [3]; 33.9 µM in assay [4].

Take `CC(C)=CC(C)C(C(O)CCC1(c2ccoc2)OCCO1)S(=O)(=O)c1ccccc1` (stereo not given): the TGI in assay [1], in assay [2], in assay [3] and in assay [4] was over 100 µM throughout.

On to `COc1ccc(/C=C2\Sc3nnc(C)n3N=C2c2cc(F)c(Cl)cc2Cl)cc1OC`, for which the TGI in assay [1] came out at 31.2 µM; in assay [2] it was 31 µM; in assay [6], 33.4 µM; in assay [3], 23.7 µM; in assay [4] it was 9.64 µM.

For `COC(=O)c1c(C)ccc2c(O)c3c(cc12)C(=O)c1c2c(cc(O)c1C3=O)C1(C)OC(C)(O2)C(O)C(N(C)C)C1O` (stereo not given), the TGI was 7.19 µM in assay [1], 8.64 µM in assay [6], 6.32 µM in assay [3] and 1.95 µM in assay [4].

Consider `CCOC(=O)c1[nH]cnc1/N=N/N(C)N`, for which the TGI in assay [1] was over 100 µM; in assay [2], over 100 µM; in assay [6], over 100 µM; in assay [3], 61.2 µM; in assay [4] it was over 100 µM.

For `c1nncn1C12C3C4C5C3C1C5C42` (stereo not given), the TGI in assay [1], in assay [2], in assay [4] and in assay [5] was over 100 µM throughout.
